Measured values as given in paper PMC10215804, “Exploring Alternative Pathways to Target Bacterial Type II Topoisomerases Using NBTI Antibacterials: Beyond Halogen-Bonding Interactions” (Antibiotics, 2023).
Like-named read-outs stand apart in the source and are kept apart here.

Assays:
human topoisomerase IIα = target: T1, human topoisomerase IIα (Homo sapiens, UniProt P11388); test: human topoisomerase II alpha relaxation high-throughput assay (selectivity); format: biochemical; conditions: residual activity at 100 µM compound; mean ± SD, two independent experiments; read-out: Human TopoIIα (% RA at 100 µM)
T1 construct: purchased Inspiralis (Norwich, UK)
Procedure: For selectivity determination, a human topoisomerase II alpha relaxation high-throughput assay was used. The assay kits and black streptavidin-coated 96-well microtiter plates are available from Inspiralis (Norwich, UK). Two independent measurements were performed with an inhibitory concentration of 100 µM. Raw data were calculated as the mean ± SD percentage of the residual enzyme activity.

E. coli topoIV = target: T2, E. coli topoIV (Escherichia coli, UniProt P0AFI2); test: topoIV relaxation inhibition assay (high-throughput plate assay); format: biochemical
T2 construct: purchased Inspiralis (Norwich, UK)
Procedure: (§1) To determine the IC50 values of the compounds for S. aureus and E. coli, a DNA gyrase supercoiling high-throughput plate assay and a topoIV relaxation high-throughput plate assay were performed. Assay kits and black streptavidin-coated 96-well microtiter plates are available from Inspiralis (Norwich, UK). For pre-screening, an inhibitor concentration of 100 μM was used. […] A nonlinear regression-based fit of the inhibition curves was used, with the log [inhibitor] versus slope of the reaction variables (four parameters) and a symmetric equation. […] To determine IC50 values, two independent repetitions were performed and the average was calculated.

S. aureus topoIV = target: T3, S. aureus topoIV (Staphylococcus aureus, UniProt P0C1U9); test: biochemical; conditions: relaxation inhibition; mean of two independent measurements ± SD
T3 construct: purchased Inspiralis (Norwich, UK)
Procedure: as §1

S. aureus DNA gyrase = target: T4, S. aureus DNA gyrase (Staphylococcus aureus, UniProt P20831); test: biochemical; conditions: supercoiling inhibition; mean of two independent measurements ± SD
T4 construct: purchased Inspiralis (Norwich, UK)
Procedure: as §1

E. coli DNA gyrase = target: T5, E. coli DNA gyrase (Escherichia coli, UniProt P0AES4); test: DNA gyrase supercoiling inhibition assay (high-throughput plate assay); format: biochemical
T5 construct: purchased Inspiralis (Norwich, UK)
Procedure: as §1

[1] = Metabolic activity assessment (cytotoxicity), CellTiter 96 Aqueous One; format: cell-based; conditions: human, 72 h treatment, means of three independent measurements ± SD
Procedure: HUVEC (ATCC® CRL-1730™) and HepG2 (ATCC® HB-8065™) cell lines were cultured in Dulbecco’s Modified Eagle Medium (DMEM; Sigma-Aldrich, St. Louis, MO, USA) supplemented with 10% heat-deactivated FBS (Gibco, Grand Island, NE, USA), 2 mM L-glutamine, 100 U/mL penicillin, 100 μg/mL streptomycin (all from Sigma-Aldrich, St. Louis, MO, USA) in a humidified chamber at 37 °C and 5% CO2. The experiments were carried out on passages 4–7 for both cell lines. The tested compounds were dissolved in DMSO and further diluted in culture medium to a desired final concentration. The cells were then seeded into 96-well plates at 5 × 10^4 cells/mL (100 μL/well) or 8 × 10^4 cells/mL (100 μL/well) for HUVEC and HepG2, respectively. The cells were then incubated for 24 h to allow attachment onto the wells. The cells were treated with 1 μM and 50 μM of each compound of interest, or the corresponding vehicle as control. […] Their metabolic activity was assessed after 72 h treatment using a CellTiter 96 Aqueous One Solution Cell Proliferation Assay (Promega, Madison, WI, USA), in accordance with the manufacturer’s instructions. The absorbance was measured at 492 nm on an automated microplate reader, Tecan Spark (Tecan Group Ltd., Männedorf, CH, Switzerland). Data are presented as the percentage of metabolic activity of control cells stimulated with vehicle, or as an IC50 value (mean ± SD) from three independent experiments, each conducted in triplicate (for screening) or duplicate (for IC50 determination). IC50 values were calculated using a non-linear regression model and with Graph Pad Prism 9 software.

E. faecalis RDK 057 = test: MIC, broth microdilution; format: cell-based
Procedure: (§2) For the determination of minimum inhibitory concentrations (MIC), the broth microdilution method was used in 96-well plate format, according to the guidelines of the Clinical and Laboratory Standards Institute and the recommendations of the European Committee on Antimicrobial Susceptibility Testing (EUCAST). The dilutions of the bacterial suspension of the specific bacterial strain, corresponding to the 0.5 McFarland turbidity standard, were prepared with […] Mueller–Hinton broth with TES (Thermo Fisher Scientific) to obtain an end inoculum of 10^5 CFU/mL. The compounds were dissolved in DMSO and mixed with the inoculum. […] The MIC was determined as the lowest concentration of antibiotic that prevented visible bacterial growth. Tetracycline was used as a positive control on each test plate.

K. pneumoniae = test: MIC, broth microdilution; format: cell-based
Procedure: as §2

S. aureus (ATCC 29213) = test: MIC, broth microdilution; format: cell-based
Procedure: as §2

E. coli ESBL QA-11.3 = test: MIC, broth microdilution; format: cell-based
Procedure: as §2

E. coli (ATCC 25922) = test: MIC, broth microdilution; format: cell-based
Procedure: as §2

P. aeruginosa RDK 184 = test: MIC, broth microdilution; format: cell-based
Procedure: as §2

A. baumannii = test: MIC, broth microdilution; format: cell-based
Procedure: as §2

E. coli D22 = test: MIC, broth microdilution; format: cell-based; conditions: Escherichia coli
Procedure: as §2

E. coli N43 (CGSC# 5583) = test: MIC, broth microdilution; format: cell-based; conditions: Escherichia coli
Procedure: as §2

[2] = read-out: MIC E. coli N43 (CGSC# 5583)

T3 sequence (P0C1U9 whole entry): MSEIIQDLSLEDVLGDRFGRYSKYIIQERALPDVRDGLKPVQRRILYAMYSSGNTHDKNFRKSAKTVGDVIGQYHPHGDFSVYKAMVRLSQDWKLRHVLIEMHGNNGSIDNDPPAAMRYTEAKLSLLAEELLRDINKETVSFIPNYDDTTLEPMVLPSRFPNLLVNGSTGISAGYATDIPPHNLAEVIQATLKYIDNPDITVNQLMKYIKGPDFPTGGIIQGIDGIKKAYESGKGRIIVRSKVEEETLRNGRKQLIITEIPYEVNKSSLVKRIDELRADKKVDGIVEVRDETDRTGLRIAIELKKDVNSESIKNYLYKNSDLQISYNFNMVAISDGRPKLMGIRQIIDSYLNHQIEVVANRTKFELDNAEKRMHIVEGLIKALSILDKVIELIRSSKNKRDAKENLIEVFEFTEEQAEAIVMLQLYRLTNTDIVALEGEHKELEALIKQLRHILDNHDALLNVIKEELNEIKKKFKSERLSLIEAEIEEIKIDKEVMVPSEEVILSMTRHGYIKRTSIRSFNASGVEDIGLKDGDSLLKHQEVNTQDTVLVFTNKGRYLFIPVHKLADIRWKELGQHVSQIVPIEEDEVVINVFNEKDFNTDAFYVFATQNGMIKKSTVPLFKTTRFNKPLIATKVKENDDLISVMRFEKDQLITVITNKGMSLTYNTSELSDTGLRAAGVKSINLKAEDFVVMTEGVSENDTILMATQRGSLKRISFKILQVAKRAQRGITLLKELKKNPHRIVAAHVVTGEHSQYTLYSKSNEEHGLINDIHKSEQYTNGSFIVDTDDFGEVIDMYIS
T3 sequence (P0C1S7 whole entry partner): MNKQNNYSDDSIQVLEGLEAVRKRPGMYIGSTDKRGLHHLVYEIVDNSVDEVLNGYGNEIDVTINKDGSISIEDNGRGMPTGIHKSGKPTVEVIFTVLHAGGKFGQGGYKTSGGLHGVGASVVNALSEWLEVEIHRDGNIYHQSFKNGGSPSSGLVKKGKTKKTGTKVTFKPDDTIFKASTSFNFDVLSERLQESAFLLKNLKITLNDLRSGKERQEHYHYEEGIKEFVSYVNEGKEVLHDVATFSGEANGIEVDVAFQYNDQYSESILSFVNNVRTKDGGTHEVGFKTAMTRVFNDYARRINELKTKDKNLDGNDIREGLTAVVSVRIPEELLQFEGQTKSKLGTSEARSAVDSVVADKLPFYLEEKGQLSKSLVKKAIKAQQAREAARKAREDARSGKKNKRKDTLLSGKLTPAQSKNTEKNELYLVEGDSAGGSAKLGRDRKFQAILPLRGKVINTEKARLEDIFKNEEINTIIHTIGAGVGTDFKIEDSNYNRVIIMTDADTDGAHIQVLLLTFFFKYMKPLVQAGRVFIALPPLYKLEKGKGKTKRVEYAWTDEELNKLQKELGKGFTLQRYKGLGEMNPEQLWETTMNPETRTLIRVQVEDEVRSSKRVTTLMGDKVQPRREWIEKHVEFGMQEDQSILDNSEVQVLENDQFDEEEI
T1 sequence (P11388 whole entry): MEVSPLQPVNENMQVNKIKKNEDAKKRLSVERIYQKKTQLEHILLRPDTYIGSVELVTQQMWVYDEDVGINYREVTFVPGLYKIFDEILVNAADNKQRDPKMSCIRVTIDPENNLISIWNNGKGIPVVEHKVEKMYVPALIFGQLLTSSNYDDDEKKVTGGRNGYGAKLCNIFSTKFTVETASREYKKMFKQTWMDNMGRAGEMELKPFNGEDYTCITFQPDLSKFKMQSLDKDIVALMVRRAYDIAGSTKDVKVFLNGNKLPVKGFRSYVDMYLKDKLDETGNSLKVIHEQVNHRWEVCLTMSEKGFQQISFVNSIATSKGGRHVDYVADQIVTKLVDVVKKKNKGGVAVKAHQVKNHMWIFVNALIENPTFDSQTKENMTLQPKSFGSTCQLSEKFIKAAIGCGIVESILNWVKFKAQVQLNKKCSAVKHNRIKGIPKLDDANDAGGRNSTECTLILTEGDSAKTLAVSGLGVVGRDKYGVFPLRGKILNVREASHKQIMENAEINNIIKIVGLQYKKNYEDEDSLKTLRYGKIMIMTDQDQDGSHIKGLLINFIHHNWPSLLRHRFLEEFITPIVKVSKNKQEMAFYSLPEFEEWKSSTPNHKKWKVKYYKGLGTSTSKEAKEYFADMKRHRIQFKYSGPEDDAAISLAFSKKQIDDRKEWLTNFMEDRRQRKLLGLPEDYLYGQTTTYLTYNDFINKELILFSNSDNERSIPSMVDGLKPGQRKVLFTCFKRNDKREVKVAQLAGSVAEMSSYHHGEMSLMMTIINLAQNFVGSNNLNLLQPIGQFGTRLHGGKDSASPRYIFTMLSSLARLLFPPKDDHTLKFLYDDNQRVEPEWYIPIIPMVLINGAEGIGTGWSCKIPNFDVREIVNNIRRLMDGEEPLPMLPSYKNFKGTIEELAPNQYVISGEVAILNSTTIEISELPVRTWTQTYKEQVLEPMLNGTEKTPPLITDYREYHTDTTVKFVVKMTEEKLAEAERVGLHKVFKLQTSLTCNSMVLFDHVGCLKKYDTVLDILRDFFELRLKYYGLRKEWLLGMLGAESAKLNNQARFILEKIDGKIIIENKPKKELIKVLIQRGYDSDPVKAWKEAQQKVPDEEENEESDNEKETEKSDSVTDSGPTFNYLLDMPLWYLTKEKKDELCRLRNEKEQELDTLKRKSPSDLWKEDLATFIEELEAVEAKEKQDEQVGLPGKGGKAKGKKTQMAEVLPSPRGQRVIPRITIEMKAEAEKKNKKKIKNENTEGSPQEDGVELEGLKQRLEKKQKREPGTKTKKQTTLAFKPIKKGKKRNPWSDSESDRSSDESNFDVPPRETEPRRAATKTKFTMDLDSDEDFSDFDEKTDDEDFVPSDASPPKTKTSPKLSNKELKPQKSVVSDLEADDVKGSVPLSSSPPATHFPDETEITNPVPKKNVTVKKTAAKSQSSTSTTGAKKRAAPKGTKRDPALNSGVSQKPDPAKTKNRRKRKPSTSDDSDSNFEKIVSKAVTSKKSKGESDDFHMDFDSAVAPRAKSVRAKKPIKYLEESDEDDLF
T5 sequence (P0AES4 whole entry): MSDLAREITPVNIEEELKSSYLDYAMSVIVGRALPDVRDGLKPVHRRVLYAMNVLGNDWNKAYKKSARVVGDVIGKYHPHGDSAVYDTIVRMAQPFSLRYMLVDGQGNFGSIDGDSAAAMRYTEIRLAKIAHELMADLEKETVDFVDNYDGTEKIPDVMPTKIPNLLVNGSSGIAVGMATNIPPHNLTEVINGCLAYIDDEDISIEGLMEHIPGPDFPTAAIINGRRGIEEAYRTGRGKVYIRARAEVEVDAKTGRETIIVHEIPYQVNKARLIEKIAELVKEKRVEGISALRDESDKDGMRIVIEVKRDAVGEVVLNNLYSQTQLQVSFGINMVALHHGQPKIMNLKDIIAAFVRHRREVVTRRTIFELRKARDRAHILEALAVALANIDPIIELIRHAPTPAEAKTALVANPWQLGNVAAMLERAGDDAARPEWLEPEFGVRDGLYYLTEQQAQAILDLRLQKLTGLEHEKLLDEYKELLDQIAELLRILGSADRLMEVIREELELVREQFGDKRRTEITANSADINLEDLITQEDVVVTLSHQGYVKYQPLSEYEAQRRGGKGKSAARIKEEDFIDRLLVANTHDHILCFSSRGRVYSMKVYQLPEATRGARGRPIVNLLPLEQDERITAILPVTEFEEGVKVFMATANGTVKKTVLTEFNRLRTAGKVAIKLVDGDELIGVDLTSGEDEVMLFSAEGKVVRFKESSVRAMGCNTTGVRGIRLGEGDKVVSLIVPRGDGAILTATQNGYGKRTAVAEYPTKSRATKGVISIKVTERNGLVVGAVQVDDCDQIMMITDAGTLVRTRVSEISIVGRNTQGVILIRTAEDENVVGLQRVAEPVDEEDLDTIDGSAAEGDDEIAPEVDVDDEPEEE

**Q.** Which remaining activity at 100 µM (human topoisomerase IIα) does the source give for COc1ccc2nccc(CCN3CCC(NCc4ccc(N)cc4)CC3)c2n1 [Compound 9, N-(4-Aminobenzyl)-1-(2-(6-methoxy-1,5-naphthyridin-4-yl)ethyl)piperidin-4-amine] here?
**A.** 100 ± 1%

**Q.** What about the IC50 (E. coli topoIV) of the same compound?
**A.** 5.698 ± 0.014 µM

**Q.** And the IC50 (S. aureus topoIV)?
**A.** > 100 µM

**Q.** And the IC50 (S. aureus DNA gyrase)?
**A.** 1.38 ± 0.108 µM

**Q.** And the IC50 (E. coli DNA gyrase)?
**A.** > 100 µM

**Q.** What about the IC50 at 72 h ([1]; HUVEC cells (ATCC CRL-1730)) of the same compound?
**A.** 34 ± 16.9 µM

**Q.** And the IC50 at 72 h ([1]; HepG2 cells (ATCC HB-8065))?
**A.** 26.1 ± 9.52 µM

**Q.** And the MIC (E. faecalis RDK 057; Enterococcus faecalis, RDK057; Table S3; read-out: MIC (μM) E. faecalis DRK 057)?
**A.** > 328 µM

**Q.** What about the MIC (E. faecalis RDK 057; Enterococcus faecalis, RDK057; read-out: MIC E. faecalis RDK 057) of the same compound?
**A.** > 128 µg/mL

**Q.** And the MIC (K. pneumoniae; Klebsiella pneumoniae, 20 h; Table S3; read-out: MIC (μM) K. pneumoniae)?
**A.** > 328 µM

**Q.** What about the MIC (K. pneumoniae; Klebsiella pneumoniae; read-out: MIC K. pneumoniae) of the same compound?
**A.** > 128 µg/mL

**Q.** What about the MIC (S. aureus (ATCC 29213); Staphylococcus aureus, ATCC29213, read-out: MIC (μM) S. aureus (ATCC 29213)) of the same compound?
**A.** 164 µM

**Q.** What about the MIC (S. aureus (ATCC 29213); Staphylococcus aureus, ATCC29213; read-out: MIC S. aureus (ATCC 29213)) of the same compound?
**A.** 64 µg/mL

**Q.** And the MIC (E. coli ESBL QA-11.3; Escherichia coli, ESBLQA11.3, 20 h; Table S3; read-out: MIC (μM) E. coli ESBL QA:11.3)?
**A.** > 328 µM

**Q.** And the MIC (E. coli ESBL QA-11.3; Escherichia coli, ESBLQA11.3; read-out: MIC E. coli ESBL QA-11.3)?
**A.** > 128 µg/mL

**Q.** And the MIC (E. coli (ATCC 25922); Escherichia coli, ATCC25922, 20 h; Table S3; read-out: MIC (μM) E. coli (ATCC 25922))?
**A.** > 328 µM

**Q.** And the MIC (E. coli (ATCC 25922); Escherichia coli, ATCC25922; read-out: MIC E. coli (ATCC 25922))?
**A.** > 128 µg/mL

**Q.** And the MIC (P. aeruginosa RDK 184; Pseudomonas aeruginosa, RDK184, 20 h; Table S3; read-out: MIC (μM) P. aeruginosa RDK 184)?
**A.** > 328 µM

**Q.** And the MIC (P. aeruginosa RDK 184; Pseudomonas aeruginosa, RDK184; read-out: MIC P. aeruginosa RDK 184)?
**A.** > 128 µg/mL

**Q.** What about the MIC (A. baumannii; Acinetobacter baumannii, 20 h; Table S3; read-out: MIC (μM) A. baumannii) of the same compound?
**A.** > 328 µM

**Q.** And the MIC (A. baumannii; Acinetobacter baumannii; read-out: MIC A. baumannii)?
**A.** > 128 µg/mL

**Q.** And the MIC (E. coli D22; D22, 20 h, Table S3, lpxC mutation, read-out: MIC (μM) E. coli D22)?
**A.** > 328 µM

**Q.** And the MIC (E. coli D22; D22, lpxC mutation that increases membrane permeability, read-out: MIC E. coli D22)?
**A.** > 128 µg/mL

**Q.** What about the MIC (E. coli N43 (CGSC# 5583); read-out: MIC (μM) E. coli N43) of the same compound?
**A.** 164 µM

**Q.** What about the MIC (E. coli N43 (CGSC# 5583); [2]) of the same compound?
**A.** 64 µg/mL

**Q.** Which results are given for COc1ccc2nccc(OCC3CCC(NCc4ccc(N)cc4)CO3)c2n1 (centres unmarked) [Compound 11, N-(4-Aminobenzyl)-6-(((6-methoxy-1,5-naphthyridin-4-yl)oxy)methyl)tetrahydro-2H-pyran-3-amine]?
**A.** remaining activity at 100 µM (human topoisomerase IIα): 100%; IC50 (E. coli topoIV): > 100 µM; IC50 (S. aureus topoIV): > 100 µM; IC50 (S. aureus DNA gyrase): > 100 µM; IC50 (E. coli DNA gyrase): > 100 µM; IC50 at 72 h ([1]; HUVEC cells (ATCC CRL-1730)): > 50 µM; IC50 at 72 h ([1]; HepG2 cells (ATCC HB-8065)): > 50 µM; MIC (E. faecalis RDK 057; Enterococcus faecalis, RDK057, read-out: MIC (μM) E. faecalis DRK 057): > 328 µM; MIC (E. faecalis RDK 057; Enterococcus faecalis, RDK057, read-out: MIC E. faecalis RDK 057): > 128 µg/mL; MIC (K. pneumoniae; Klebsiella pneumoniae, 20 h, read-out: MIC (μM) K. pneumoniae): > 328 µM; MIC (K. pneumoniae; Klebsiella pneumoniae, read-out: MIC K. pneumoniae): > 128 µg/mL; MIC (S. aureus (ATCC 29213); Staphylococcus aureus, ATCC29213, 20 h, read-out: MIC (μM) S. aureus (ATCC 29213)): > 328 µM; MIC (S. aureus (ATCC 29213); Staphylococcus aureus, ATCC29213, read-out: MIC S. aureus (ATCC 29213)): > 128 µg/mL; MIC (E. coli ESBL QA-11.3; Escherichia coli, ESBLQA11.3, 20 h, read-out: MIC (μM) E. coli ESBL QA:11.3): > 328 µM; MIC (E. coli ESBL QA-11.3; Escherichia coli, ESBLQA11.3, read-out: MIC E. coli ESBL QA-11.3): > 128 µg/mL; MIC (E. coli (ATCC 25922); Escherichia coli, ATCC25922, 20 h, read-out: MIC (μM) E. coli (ATCC 25922)): > 328 µM; MIC (E. coli (ATCC 25922); Escherichia coli, ATCC25922, read-out: MIC E. coli (ATCC 25922)): > 128 µg/mL; MIC (P. aeruginosa RDK 184; Pseudomonas aeruginosa, RDK184, 20 h, read-out: MIC (μM) P. aeruginosa RDK 184): > 328 µM; MIC (P. aeruginosa RDK 184; Pseudomonas aeruginosa, RDK184, read-out: MIC P. aeruginosa RDK 184): > 128 µg/mL; MIC (A. baumannii; Acinetobacter baumannii, 20 h, read-out: MIC (μM) A. baumannii): > 328 µM; MIC (A. baumannii; Acinetobacter baumannii, read-out: MIC A. baumannii): > 128 µg/mL; MIC (E. coli D22; D22, 20 h, read-out: MIC (μM) E. coli D22): > 328 µM; MIC (E. coli D22; D22, read-out: MIC E. coli D22): > 128 µg/mL; MIC (E. coli N43 (CGSC# 5583); 20 h, read-out: MIC (μM) E. coli N43): > 328 µM; MIC (E. coli N43 (CGSC# 5583); [2]): > 128 µg/mL
